Test results: patent US20180311161A1, “AMPHIPHILIC POLYMERS ENCAPSULATING THERAPEUTICALLY ACTIVE AGENTS” (TECHNION RESEARCH & DEVELOPMENT FOUNDATION LIMITED, priority 2015, published 2018)

Assays:
Caco2 cell line = test: In vitro cell compatibility, MTT method; format: cell-based; conditions: crosslinker, versus only-medium control (100% viability)
Experimental: Since these polymeric micelles are envisioned for the administration by mucosal routes, including the oral one, their cell compatibility before and after corona-crosslinking was evaluated in a Caco2 cell line (ATCC® HTB-37™) obtained from American Type Culture Collection (ATCC®, Manassas, Va., USA).
In exemplary embodiments, cells were cultured in Eagle's Minimum Essential Medium (EMEM, Life Technologies Corp., Carlsbad, Calif., USA) supplemented with L-glutamine, 10% heat-inactivated fetal bovine serum (FBS, Sigma-Aldrich) and penicillin/streptomycin (5 mL of a commercial mixture of 100 U/mL of penicillin+100 μg/mL streptomycin per 500 mL medium, Sigma-Aldrich) and maintained at 37° C. in a humidified 5% CO2 atmosphere and split 1:10 into fresh media every three-four days. Cells were harvested by trypsinization (trypsin-EDTA 0.25%, Sigma-Aldrich) and the number of live cells was quantified the trypan blue (1%, Sigma-Aldrich) exclusion assay and a Neubauer chamber. To determine the compatibility of the polymeric micelles (expressed as percentage with respect to a blank incubated with culture medium), cells were cultured in 96-well plates (5×10^3 cells/well) and allowed to attach over 72 h. The medium in each well was replaced by different samples (concentration between 0.1%, 0.3% and 0.5% in PBS+medium) and cells incubated over 4 and 24 h. […]

[1] = Encapsulation of efavirenz in polymeric micelles (apparent solubility, solubility factor); format: physicochemical; conditions: 37° C.
Experimental: The encapsulation capacity of the micelles was studied with the antiretroviral efavirenz. For this, 1%, 3%, 5% and 10% w/v CS-N52 and 1% CS-N74 polymeric micelles were prepared and 2-10 mg of drug per mL of micellar suspension added. The suspension was magnetically stirred at 37° C. (48 h), filtered (1.2 μm, Minisart® NML cellulose acetate, Sartorius AG, Goettingen, Germany) to remove insoluble drug, the filtrate diluted (1/10) in distilled water and 10 mL extracted with dichloromethane (3×20 mL). The organic solution was evaporated under vacuum, re-dissolved in methanol and the absorbance measured in microplate spectrophotometer (λ=248 nm). Then, the EFV concentration was calculated by interpolation in a calibration curve in the range of 0.02-80 μg/mL (R^2>0.9999). Finally, the solubility factor (fs) was determined according to
where Sa is the apparent solubility of active agent (herein: efavirenz) in the polymeric micelles and Si is the intrinsic solubility of the active agent (efavirenz) in a polymer-free medium (7 μg/mL), at 37° C. Measurements were performed in triplicate and the results are expressed as the mean±S.D. Efavirenz-loaded micelles before and after ionotropic crosslinking were characterized for Dh, PDI and Z-potential by DLS (see above).

Structure (SMILES)	viability of Caco2 cells (MTT) (Caco2 cell line)	Si (intrinsic solubility in a polymer-free medium) [1] [µg/mL]
O=P(O)(O)OP(=O)(O)OP(=O)(O)O [TPP, sodium tripolyphosphate]	did not affect the viability of the cells	
O=C1Nc2ccc(Cl)cc2[C@@](C#CC2CC2)(C(F)(F)F)O1 [efavirenz]		7
